The target in test [1] is T1, angiotensin II-induced vasoconstriction (Oryctolagus cuniculus, UniProt P34976).
T1 sequence (P34976 1-359): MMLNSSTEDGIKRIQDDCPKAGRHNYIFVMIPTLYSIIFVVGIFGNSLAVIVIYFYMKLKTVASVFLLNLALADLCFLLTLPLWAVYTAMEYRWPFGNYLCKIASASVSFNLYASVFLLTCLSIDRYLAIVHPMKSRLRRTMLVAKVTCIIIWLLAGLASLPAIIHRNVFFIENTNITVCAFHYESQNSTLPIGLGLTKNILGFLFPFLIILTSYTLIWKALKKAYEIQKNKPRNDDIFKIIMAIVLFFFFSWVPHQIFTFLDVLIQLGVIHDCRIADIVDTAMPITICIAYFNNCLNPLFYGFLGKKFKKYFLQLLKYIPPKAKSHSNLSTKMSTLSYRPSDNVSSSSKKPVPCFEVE
Nature of the test: Inhibition of Angiotensin II Dose-Response in Rabbit Thoracic Aorta. Details: from tissue; host or cells: thoracic aorta rings of New Zealand white rabbits; species or system New Zealand white rabbits. The following applies: for inhibition at 10 µM: read-out: % Inh @ 10^-5 M; for EC90: contraction, 95% C.L. in brackets. How it is done: VII. Cellular and Biochemical pharmacology of DuP 753, an orally active antihypertensive agent. J. Pharmacol. Exp. Ther., 252, 726 (1990)]
Test compounds are diluted in dimethylsulfoxide vehicle such that a 50 μL addition to the tissue bath produces a final bath concentration of 1×10^-5 M compound in Krebs-bicarbonate buffer (baths contain 15 mL Krebs-bicarbonate buffer).
Procedure: 1.8 to 2.3 kg New Zealand white rabbits are sacrificed with an intravenous sodium pentobarbital overdose and the thoracic aorta gently dissected free from the aortic root to the level of the diaphragm, into ice cold Krebs bicarbonate buffer. The aorta is gently freed of clots and adventitia and cleanly cut into 5 mm segments. Each ring is suspended from a Gould isotonic force transducer in a tissue bath containing 15 mL oxygenated Krebs bicarbonate buffer regulated at 37° C. Initial tenison is adjusted to 4.0 g and equilibrated over three 20-minute wash periods with fresh Krebs-bicarbonate buffer to achieve a baseline tension of 3.0 g. […] […] […] In addition, since the test compounds are dissolved in DMSO, DMSO alone is tested in two rings as a vehicle control in each screening experiment.

Test [2] addresses T1, angiotensin II-induced vasoconstriction. Nature of the test: Angiotensin II Antagonist Dose-Response in Rabbit Thoracic Aorta (Schild plot). The following applies: for Kb: read-out: pA2 (converted). Details: from tissue; host or cells: thoracic aorta rings of New Zealand white rabbits; species or system New Zealand white rabbits. From the text: Angiotensin II Antagonist Dose-Response in Rabbit Thoracic Aorta Purpose: […] [Chiu, […]., Price, W. A., Wong, […]., Duncia, […]., Yoo, S. E., Johnson, A. L., and […].: Nonpeptide angiotensin II receptor antagonists. VII. Cellular and Biochemical pharmacology of […], an orally active antihypertensive agent. J. Pharmacol. Exp. Ther., 252,726 (1990)]. Solution Preparation: […] For each test an aliquot is freshly thawed and serially diluted with Krebs bicarbonate buffer to provide stock solutions of angiotensin II in buffer for addition to the tissue baths. […] Procedure: 1.8 to 2.3 kg New Zealand white rabbits are sacrificed with an intravenous sodium pentobarbital overdose and the thoracic aorta gently dissected free from the aortic root to the level of the diaphragm, into ice cold Krebs bicarbonate buffer. The aorta is gently freed of clots and adventitia and cleanly cut into 5 mm segments. Each ring is suspended from a Gould isotonic force transducer in a tissue bath containing 15 mL oxygenated Krebs bicarbonate buffer regulated at 37° C. […] The test compound is then given to separate rings at different antagonist concentrations (n=2 rings/test concentration) in order to asses antagonist dose-response. The angiotensin II cumulative dose-response is then repeated in the presence of the test compound. Analysis: Angiotensin II vasoconstrictor tension in grams is expressed as a percent of maximal contraction for the before and after test compound angiotensin II dose-responses. […] See results in Table 2.

The test system of a further test is Angiotensin Receptor. As to the kind of experiment: Screening Potential Angiotensin Receptor Antagonists in Salt-Depleted Normotensive Rats (blood pressure after oral dosing). The test is classed as in vivo, Sprague-Dawley rats. The following applies: oral, salt-depleted normotensive rats; active = MAP decrease of 10 or more mmHg vs concurrent control. The text has this: Test Procedure for Screening Potenital Angiotensin Receptor Antagonists in Salt-Depleted Normotensive Rats
Purpose: This test is designed to detect hypotensive effects of a compound after oral dosing in normotensive animals made renin-dependent by salt depletion. [Wong, P. C., Price, W. A., Chiu, A. T., Duncia, J. V., Carini, D. J., Wexler, R. R., Johnson, A. L., and Timmermans, P. B. M. W. M.: Nonpeptide angiotensin II receptor antagonists. VIII. […] J. Pharmacol. Exp. Ther., 252,726 (1990)]
Solution Preparation: Oral 50 mg/kg furosemide doses are prepared from 10 mg/mL solutions of the intravenous pharmaceutical preparation (Lasix injection, Hoechst-Roussel Pharmaceutical). Test compound is uniformly suspended in 1% methylcellulose.
Method: Male 350-450 g Sprague-Dawley rats are implanted with teflon microcannulae via the middle caudal artery under 20 mg/kg intravenous brevital anesthesia and permitted a 4-7 day surgical recovery period. Throughout recovery and testing animals are individually housed unrestrained in standard rat metabolism cages and receive continuous 0.5 mL/hour intra-arterial 0.25 N saline infusion through a spring-shielded swivelling tether connected to an infusion/blood pressure recording system to maintain arterial cannula patency. Animals are maintained on Low Sodium (0.03%) Pruina Rat Chow #5881 throughout the study. After the recovery period animals are given oral 50 mg/kg furosemide (Lasix, Hoechst-Roussel Pharmaceutical) doses on two consecutive days to produce marked diuresis and plasma volume depletion that makes maintenance of normal blood pressure highly dependent on function of the renin-angiotensin-aldosteronesystem. Three hours after the second furosemide dose, rats are given test compound uniformly suspended in 1% methylcellulose (n=3/dose level) or 1 mL 1% methylcellulose vehicle (n=3) orally by gavage and blood pressure is continuously recorded for 24 h using a Buxco computerized data recording system. Compound-induced changes in blood pressure are compared to concurrent vehicle control blood pressures in order to detect drug effect.
Interpretation: Prior to salt depletion, normotensive rats typically show a plasma renin activity (PRA), measured by Radioimmuno Assay (RIA) of Angiotensin I (as ng Angiotensin I/mL plasma/hour) and yields a RIA of 0.7. After the salt-depletion protocol PRA values taken 3 hour after the furosemide dose have risen to about 7.4. […] PRA is increased by this DuP-753 treatment to about 41.4.
Compounds that decrease blood pressure 10 or more mmHg (MAP) compared to concurrent control after oral dosing are considered active in this test. Maximum possible response is about-35 mmHg. See results in Table 2.

Usually pA2 stands for the negative logarithm of the molar antagonist concentration that doubles the agonist concentration needed for the same response. High values mean higher antagonist potency, low ones lower antagonist potency.

Where a name gives a salt, the structure may show the parent alone. Read-outs that look alike come from different tables or passages of the source. Some results are limits rather than exact numbers.

As to `CCOC(=O)C=C1N(Cc2ccc(-c3ccccc3-c3nnn[nH]3)cc2)C(=O)CC12CCCCC2` [ac, 5-Carbethoxymethyliden-4-spirocyclohexyl-1-[4-(2-tetrazolophenyl)benzyl]pyrrolidin-2-one Pyridinium Salt,1.2 Hydrate], the inhibition at 10 µM in test [1] worked out at 100%. This molecule registered a pA2 in test [2] (Schild plot vs angiotensin II, rabbit thoracic aorta rings) of 7.93. Further, the “Antihypertensive Activity (p.o.): active @ dose” value in the test on Angiotensin Receptor amounted to 30 mpk.

Regarding `CCOC(=O)C=C1N(Cc2ccc(-c3ccccc3-c3nnn[nH]3)cc2)C(=O)CC12CCCCCC2` [ad, 5-Carbethoxymethylidine-4-spirocycloheptyl-1-[4-(2-tetrazolophenyl)benzyl]pyrrolidin-2-one Pyridinium Salt, 1.3 Hydrate], the inhibition at 10 µM in test [1] amounted to 100%. In addition, the Kb in test [2] is 4.37 nM. Also, in the test on Angiotensin Receptor, the “Antihypertensive Activity (p.o.): active @ dose” value is recorded as 30 mpk.

Consider `CCOC(=O)C=C1CC(C)(CC)CC(=O)N1Cc1ccc(-c2ccccc2-c2nnn[nH]2)cc1` (stereo not drawn) [ae, 6-Carbethoxymethyliden-4-ethyl-4-methyl-1-[4-(2-tetrazolophenyl)benzyl]piperidine-2-one Pyridinium Salt, 1.25 Hydrate], for which, in test [1], the inhibition at 10 µM amounted to 100%. Moreover, the Kb in test [2] was 1.07 nM. The “Antihypertensive Activity (p.o.): active @ dose” value with Angiotensin Receptor is reported as 10 mpk.

For `CCOC(=O)C=C1N(Cc2ccc(-c3ccccc3-c3nnn[nH]3)cc2)C(=O)CC12CCCC2` [af, 5-Carbethoxymethylidine-4-spirocyclopentyl-1-[4-(2-tetrazolophenyl)benzyl]pyrrolidin-5-one Pyridinium Salt, 1.4 Hydrate], in test [1], the inhibition at 10 µM was determined as 100%. Moreover, the Kb in test [2] was 3.63 nM. Moreover, the “Antihypertensive Activity (p.o.): active @ dose” value in the test with Angiotensin Receptor amounted to 30 mpk.

Regarding `CCOC(=O)C=C1C2C3CCCC(CC3)C2C(=O)N1Cc1ccc(-c2ccccc2-c2nnn[nH]2)cc1` (stereo not drawn) [ag, 3-Carbethoxymethyliden-2-[4-(2-tetrazolophenyl)benzyl]-4,7-endopropylen-1,3,4,5,6,7-hexahydro-1-oxoisoindole Dihydrate], the inhibition at 10 µM in test [1] turned out to be 100%. For the same molecule, the “Antihypertensive Activity (p.o.): active @ dose” value with Angiotensin Receptor came out at 30 mpk.

Take `CCOC(=O)C=C1C2C3C=CC(CCC3)C2C(=O)N1Cc1ccc(-c2ccccc2-c2nnn[nH]2)cc1` (stereo not drawn) [ah, 3-Carbethoxymethyliden-2-[4-(2-tetrazolophenyl)benzyl]-4,7-endopropylen-1,3,4,7-tetrahydro-1-oxoisoindole Pyridinium Salt, 1.75 Hydrate]: the inhibition at 10 µM in test [1] is 100%. For the same molecule, the Kb in test [2] was 14.1 nM. Besides, the “Antihypertensive Activity (p.o.): active @ dose” value in the test with Angiotensin Receptor is on record as over 30 mpk.

In the case of `CCOC(=O)C=C1C2C3C=CC(C3)C2C(=O)N1Cc1ccc(-c2ccccc2C(=O)OC)cc1` (stereo not drawn) [m, 3-Carbethoxymethyliden-2-[4-(2-carbomethoxyphenyl)benzyl]-4,7-endomethylen-1,3,4,7-tetrahydro-1-oxoisoindole], the inhibition at 10 µM in test [1] was determined as 0%.

`CCOC(=O)C=C1C2C3C=CC(CC3)C2C(=O)N1Cc1ccc(-c2ccccc2C#N)cc1` (stereo not drawn) [p, 3-Carbethoxymethyliden-2-[4-(2-cyanophenyl)benzyl]-4,7-endoethylen-1,3,4,7-tetrahydro-1-oxoisoindole]: the inhibition at 10 µM in test [1] was 3%.

With `CCOC(=O)C=C1CC(C)(C)CC(=O)N1Cc1ccc(-c2ccccc2-c2nnn[nH]2)cc1` [s, 6-Carbethoxymethyliden-4,4-dimethyl-1-[4-(2-tetrazolophenyl)benzyl]piperidin-2-one Pyridinium salt], the inhibition at 10 µM in test [1] came to 100%. The Kb in test [2] is 39.8 nM. Moreover, the “Antihypertensive Activity (p.o.): active @ dose” value in the test with Angiotensin Receptor was 30 mpk.

Turning to `CCOC(=O)C=C1CC2(CCCC2)CC(=O)N1Cc1ccc(-c2ccccc2-c2nnn[nH]2)cc1` [t, 6-Carbethoxymethyliden-4-spirocyclopentyl-1-[4-(2-tetrazolophenyl)benzyl]piperidin-2-one Pyridinium Salt], in test [1], the inhibition at 10 µM came to 100%. Further, the Kb in test [2] was 14.1 nM. In the test with Angiotensin Receptor, the “Antihypertensive Activity (p.o.): active @ dose” value is recorded as 30 mpk.

Regarding `CCOC(=O)C=C1C2C3C=CC(CC3)C2C(=O)N1Cc1ccc(-c2ccccc2-c2nnn[nH]2)cc1` (stereo not drawn) [u, 3-Carbethoxymethyliden-2-[4-(2-tetrazolophenyl)benzyl]-4,7-endoethylen-1,3,4,7-tetrahydro-1-oxoisoindole], the inhibition at 10 µM in test [1] stood at 99%. In test [2], the Kb is 6.92 nM. Besides, in the test with Angiotensin Receptor, the “Antihypertensive Activity (p.o.): active @ dose” value was determined as 30 mpk.

Turning to `CCOC(=O)C=C1C2C3C=CC(C3)C2C(=O)N1Cc1ccc(-c2ccccc2-c2nnn[nH]2)cc1` (stereo not drawn) [v, 3-Carbethoxymethyliden-2-[4-(2-tetrazolophenyl)benzyl]-4,7-endomethylen-1,3,4,7-tetrahydro-1-oxoisoindole Pyridinium Salt], in test [1], the inhibition at 10 µM was determined as 100%. Moreover, in test [2], the Kb was 4.47 nM.

For `CCOC(=O)C=C1C2C3CCC(C3)C2C(=O)N1Cc1ccc(-c2ccccc2C(=O)OC)cc1` (stereo not drawn) [y, 3-Carbethoxymethyliden-2-[4-(2-carbomethoxyphenyl)benzyl]-4,7-endomethylen-1,3,4,5,6,7-hexahydro-1-oxoisoindole], in test [1], the inhibition at 10 µM worked out at 0%.

For the molecule `CCOC(=O)C=C1C2C3CCC(C3)C2C(=O)N1Cc1ccc(-c2ccccc2-c2nnn[nH]2)cc1` (stereo not drawn) [z, 3-Carbethoxymethyliden-2-[4-2-(tetrazolophenyl)benzyl]-4,7-endomethylen-1,3,4,5,6,7-hexahydro-1-oxoisoindole], in test [1], the inhibition at 10 µM came out at 100%. For the same molecule, in test [2], the Kb is 1.05 nM. In addition, in the test on Angiotensin Receptor, the “Antihypertensive Activity (p.o.): active @ dose” value was 30 mpk.

In the case of angiotensin II [reference compound], the EC90 in test [1] (read-out: Mean ED90 for angiotensin II after DMSO vehicle treatment, after DMSO vehicle) is 5.88 nM; in test [1] (read-out: Mean ED90 for angiotensin II before DMSO vehicle treatment, before DMSO vehicle), 4.44 nM.

Values taken from patent US5246940A, “Substituted N-biphenylyl lactams” (Ortho Pharmaceutical Corporation, priority 1993, dated 1993).
